The text below walks through data of ChEMBL document CHEMBL1817616, “Synthesis, characterization and biological evaluation of some 16β-azolyl-3β-amino-5α-androstane derivatives as potential anticancer agents” (Eur J Med Chem, 2011).

As a reminder, the IC50 is the concentration needed to halve the response being measured. Read a high IC50 as lower potency.

SMILES strings stand for the structures.

One assay deals with A549. As to the kind of experiment: Anticancer activity against human A549 cells after 48 hrs by MTT assay. The settings on record: A549, 48 h. In kind it is functional, cell-based. A general note: Tetrazolium dyes change colour on reduction, which living cells bring about.
In a further assay the test system is HepG2. The assay is described as follows: Anticancer activity against human HepG2 cells after 48 hrs by MTT assay. In kind it is functional, cell-based. The settings on record: HepG2, 48 h.
The test system of a further assay is SiHa. As to the kind of experiment: Anticancer activity against human SiHa cells after 48 hrs by MTT assay. In kind it is functional, cell-based.
Another assay relates to SW480. The assay is described as follows: Anticancer activity against human SW480 cells after 48 hrs by MTT assay. In kind it is functional, cell-based. The settings on record: SW480, 48 h.
For another assay, the system named is HeLa. The assay is described as follows: Anticancer activity against human HeLa cells after 48 hrs by MTT assay. In kind it is functional, cell-based.
The subject of the next assay is HEK293. The assay is described as follows: Cytotoxicity against human HEK293 cells after 48 hrs by MTT assay. In kind it is cell-based. The settings on record: HEK293, 48 h.

`CC(=O)O[C@H]1[C@@H](n2ccnn2)C[C@H]2[C@@H]3CC[C@H]4C[C@@H](N5CCCCC5)CC[C@]4(C)[C@H]3CC[C@@]21C`: the IC50 in the assay on A549, with HepG2, in the assay with SiHa, in the assay on SW480 and in the assay with HeLa was greater than 50 µM each time.
In the case of `CCN(CC)[C@H]1CC[C@@]2(C)[C@@H](CC[C@@H]3[C@@H]2CC[C@@]2(C)[C@H]3C[C@H](n3nnc4ccccc43)[C@@H]2OC(C)=O)C1`, the IC50 in the assay on A549 is greater than 50 µM; in the assay on HepG2, greater than 50 µM; in the assay with SiHa, 37.2 µM; in the assay with SW480, greater than 50 µM; in the assay on HeLa, greater than 50 µM.
With `CC(=O)O[C@H]1[C@@H](n2cnc3ccccc32)C[C@H]2[C@@H]3CC[C@H]4C[C@@H](N(C)Cc5ccccc5)CC[C@]4(C)[C@H]3CC[C@@]21C`, the IC50 with A549 was 4.22 µM; in the assay on HepG2, 5.14 µM; in the assay on SiHa it was 11.9 µM; with HEK293 it was greater than 80 µM; in the assay on SW480 it was 15.8 µM; in the assay with HeLa, 6.04 µM.
Turning to `CC(=O)O[C@H]1[C@@H](n2cncn2)C[C@H]2[C@@H]3CC[C@H]4C[C@@H](N5CCOCC5)CC[C@]4(C)[C@H]3CC[C@@]21C`, the IC50 in the assay on A549 is greater than 50 µM; with HepG2, 19.5 µM; with SiHa, greater than 50 µM; in the assay with SW480, greater than 50 µM; in the assay on HeLa it was 22.3 µM.
Take `CC(=O)O[C@H]1[C@@H](n2cnc3ccccc32)C[C@H]2[C@@H]3CC[C@H]4C[C@@H](N5CCCCC5)CC[C@]4(C)[C@H]3CC[C@@]21C`: the IC50 in the assay with A549 is greater than 50 µM; in the assay with HepG2 it was 29.6 µM; in the assay on SiHa it was 18.7 µM; in the assay on SW480 it was greater than 50 µM; in the assay on HeLa it was greater than 50 µM.
On to `CCN(CC)[C@H]1CC[C@@]2(C)[C@@H](CC[C@@H]3[C@@H]2CC[C@@]2(C)[C@H]3C[C@H](n3cncn3)[C@@H]2OC(C)=O)C1`, for which the IC50 in the assay on A549, with HepG2, in the assay on SiHa, in the assay on SW480 and in the assay with HeLa was greater than 50 µM throughout.
As to `CC(=O)O[C@H]1[C@@H](n2nnc3ccccc32)C[C@H]2[C@@H]3CC[C@H]4C[C@@H](N5CCCC5)CC[C@]4(C)[C@H]3CC[C@@]21C`, the IC50 in the assay with A549, with HepG2, with SiHa, in the assay with SW480 and with HeLa was greater than 50 µM throughout.
Take `CC(=O)O[C@H]1[C@@H](n2cncn2)C[C@H]2[C@@H]3CC[C@H]4C[C@@H](N(C)Cc5ccccc5)CC[C@]4(C)[C@H]3CC[C@@]21C`: the 50% inhibitory concentration (IC50) was greater than 50 µM in the assay on A549; 10.6 µM with HepG2; 22.4 µM in the assay with SiHa; greater than 50 µM with SW480; 18.7 µM with HeLa.
Turning to `CC(=O)O[C@H]1[C@@H](n2cncn2)C[C@H]2[C@@H]3CC[C@H]4C[C@@H](N(C)c5ccccc5)CC[C@]4(C)[C@H]3CC[C@@]21C`, the IC50 in the assay on A549 was 12.3 µM; in the assay with HepG2 it was 21.9 µM; with SiHa it was 37.1 µM; in the assay on SW480, greater than 50 µM; with HeLa, 19.8 µM.
For the compound `CC(=O)O[C@H]1[C@@H](n2ccnn2)C[C@H]2[C@@H]3CC[C@H]4C[C@@H](N5CCOCC5)CC[C@]4(C)[C@H]3CC[C@@]21C`, the IC50 is 40.3 µM in the assay with A549; greater than 50 µM with HepG2; 47.8 µM with SiHa; 31.8 µM with SW480; greater than 50 µM with HeLa.
Consider `CC(=O)O[C@H]1[C@@H](n2cnc3ccccc32)C[C@H]2[C@@H]3CC[C@H]4C[C@@H](N5CCCC5)CC[C@]4(C)[C@H]3CC[C@@]21C`, for which the IC50 in the assay on A549 is 39.6 µM; with HepG2, greater than 50 µM; in the assay on SiHa, 37.1 µM; in the assay with SW480 it was greater than 50 µM; in the assay with HeLa, greater than 50 µM.
Take `CCN(CC)[C@H]1CC[C@@]2(C)[C@@H](CC[C@@H]3[C@@H]2CC[C@@]2(C)[C@H]3C[C@H](n3ccnn3)[C@@H]2OC(C)=O)C1`: the IC50 in the assay on A549, with HepG2, in the assay with SiHa, in the assay on SW480 and with HeLa was greater than 50 µM throughout.
Turning to `CC(=O)O[C@H]1[C@@H](n2cncn2)C[C@H]2[C@@H]3CC[C@H]4C[C@@H](N5CCCC5)CC[C@]4(C)[C@H]3CC[C@@]21C`, the IC50 with A549, in the assay with HepG2, in the assay with SiHa, in the assay on SW480 and in the assay with HeLa was greater than 50 µM throughout.
With `CC(=O)O[C@H]1[C@@H](n2cncn2)C[C@H]2[C@@H]3CC[C@H]4C[C@@H](N5CCCCC5)CC[C@]4(C)[C@H]3CC[C@@]21C`, the IC50 with A549, in the assay on HepG2, in the assay on SiHa, in the assay on SW480 and in the assay with HeLa was greater than 50 µM throughout.
Turning to `CC(=O)O[C@H]1[C@@H](n2nnc3ccccc32)C[C@H]2[C@@H]3CC[C@H]4C[C@@H](N5CCCCC5)CC[C@]4(C)[C@H]3CC[C@@]21C`, the IC50 is 22.7 µM with A549; greater than 50 µM with HepG2; greater than 50 µM in the assay with SiHa; greater than 50 µM in the assay with SW480; 29.6 µM in the assay on HeLa.
For the compound `CC(=O)O[C@H]1[C@@H](n2cnc3ccccc32)C[C@H]2[C@@H]3CC[C@H]4C[C@@H](N5CCOCC5)CC[C@]4(C)[C@H]3CC[C@@]21C`, the IC50 with A549 was 16.1 µM; with HepG2 it was greater than 50 µM; in the assay on SiHa, 12.3 µM; with SW480 it was greater than 50 µM; in the assay with HeLa, greater than 50 µM.
For `CC(=O)O[C@H]1[C@@H](n2ccnn2)C[C@H]2[C@@H]3CC[C@H]4C[C@@H](N(C)Cc5ccccc5)CC[C@]4(C)[C@H]3CC[C@@]21C`, the IC50 in the assay with A549 was 11.4 µM; in the assay on HepG2, 8.43 µM; in the assay with SiHa, 15.2 µM; in the assay with SW480, greater than 50 µM; in the assay on HeLa, greater than 50 µM.
For `CC(=O)O[C@H]1[C@@H](n2nnc3ccccc32)C[C@H]2[C@@H]3CC[C@H]4C[C@@H](N(C)Cc5ccccc5)CC[C@]4(C)[C@H]3CC[C@@]21C`, the IC50 was 7.72 µM in the assay with A549; 5.54 µM with HepG2; 26.2 µM with SiHa; 48.7 µM with HEK293; greater than 50 µM in the assay on SW480; 11.3 µM in the assay with HeLa.
Take `CC(=O)O[C@H]1[C@@H](n2ccnn2)C[C@H]2[C@@H]3CC[C@H]4C[C@@H](N(C)c5ccccc5)CC[C@]4(C)[C@H]3CC[C@@]21C`: the IC50 in the assay on A549 was 18.9 µM; in the assay on HepG2 it was 9.35 µM; in the assay on SiHa, 11.7 µM; in the assay on SW480, greater than 50 µM; in the assay with HeLa it was 72.1 µM.
The like results for `CC(=O)O[C@H]1[C@@H](n2cnc3ccccc32)C[C@H]2[C@@H]3CC[C@H]4C[C@@H](N5CCN(C)CC5)CC[C@]4(C)[C@H]3CC[C@@]21C` were, in that order, 22.4 µM, 11.7 µM, 14.9 µM, greater than 50 µM and greater than 50 µM.
The corresponding values for `CC(=O)O[C@H]1[C@@H](n2cncn2)C[C@H]2[C@@H]3CC[C@H]4C[C@@H](N5CCN(C)CC5)CC[C@]4(C)[C@H]3CC[C@@]21C` are 39.7 µM, 23.5 µM, greater than 50 µM, greater than 50 µM and greater than 50 µM.
Regarding `CCN(CC)[C@H]1CC[C@@]2(C)[C@@H](CC[C@@H]3[C@@H]2CC[C@@]2(C)[C@H]3C[C@H](n3cnc4ccccc43)[C@@H]2OC(C)=O)C1`, the IC50 was greater than 50 µM in the assay with A549; 22.1 µM in the assay with HepG2; 29.8 µM in the assay on SiHa; greater than 50 µM in the assay on SW480; greater than 50 µM in the assay on HeLa.
For `CC(=O)O[C@H]1[C@@H](n2nnc3ccccc32)C[C@H]2[C@@H]3CC[C@H]4C[C@@H](N5CCOCC5)CC[C@]4(C)[C@H]3CC[C@@]21C`, the IC50 in the assay with A549 is 12.2 µM; in the assay on HepG2, greater than 50 µM; with SiHa it was greater than 50 µM; in the assay with SW480, greater than 50 µM; in the assay on HeLa it was 19.8 µM.
Take `CC(=O)O[C@H]1[C@@H](n2nnc3ccccc32)C[C@H]2[C@@H]3CC[C@H]4C[C@@H](N5CCN(C)CC5)CC[C@]4(C)[C@H]3CC[C@@]21C`: the IC50 was 8.99 µM in the assay on A549; 31.7 µM in the assay on HepG2; 22 µM with SiHa; 18.9 µM in the assay with SW480; greater than 50 µM in the assay on HeLa.
Take `CC(=O)O[C@H]1[C@@H](n2ccnn2)C[C@H]2[C@@H]3CC[C@H]4C[C@@H](N5CCN(C)CC5)CC[C@]4(C)[C@H]3CC[C@@]21C`: the IC50 with A549 is greater than 50 µM; with HepG2 it was greater than 50 µM; in the assay on SiHa, greater than 50 µM; with SW480, greater than 50 µM; with HeLa it was 38.1 µM.
Consider `CC(=O)O[C@H]1[C@@H](n2ccnn2)C[C@H]2[C@@H]3CC[C@H]4C[C@@H](N5CCCC5)CC[C@]4(C)[C@H]3CC[C@@]21C`, for which the IC50 in the assay with A549, in the assay on HepG2, with SiHa, in the assay on SW480 and with HeLa was greater than 50 µM throughout.
With `COc1cccc2c1C(=O)c1c(O)c3c(c(O)c1C2=O)C[C@@](O)(C(=O)CO)C[C@@H]3O[C@H]1C[C@H](N)[C@H](O)[C@H](C)O1` [DOXORUBICIN], the values for the IC50 in the assay with SiHa, in the assay on SW480 and in the assay with HeLa were 0.45 µM, 0.06 µM and 0.23 µM, respectively.
